# Test results taken from PubChem BioAssay (NCI).
#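 All cell lines were grown in 96-well plates and treated with compound for 48 hours. TGI denotes the concentration required for complete inhibition of growth.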
# What was measured:
# Assay in all cases: inhibition of tumour cell growth, NCI panel, 48 h
# [1] = system: 786-0 renal
# [2] = system: A498 renal
# [3] = system: A549 NSCLC
# [4] = system: ACHN renal
# [5] = system: BT-549 breast
# [6] = system: CAKI-1 renal
# [7] = system: CCRF-CEM leukemia
# [8] = system: COLO 205 colon
# [9] = system: DU-145 prostate
# [10] = system: EKVX NSCLC
# [11] = system: HCC-2998 colon
# [12] = system: HCT-116 colon
# [13] = system: HCT-15 colon
# [14] = system: HL-60(TB) leukemia
# [15] = system: HOP-62 NSCLC
# [16] = system: HOP-92 NSCLC
# [17] = system: HS 578T breast
# [18] = system: HT29 colon
# [19] = system: IGROV1 ovarian
# [20] = system: K-562 leukemia
# [21] = system: KM12 colon
# [22] = system: LOX IMVI melanoma
# [23] = system: M14 melanoma
# [24] = system: MALME-3M melanoma
# [25] = system: MCF7 breast
# [26] = system: MDA-MB-231 breast
# [27] = system: MDA-MB-435
# [28] = system: MDA-N
# [29] = system: MOLT-4 leukemia
# [30] = system: NCI-H23 lung
# [31] = system: NCI-H460 lung
# [32] = system: NCI-H522 lung
# [33] = system: NCI/ADR-RES ovarian
# [34] = system: OVCAR-3 ovarian
# [35] = system: OVCAR-4 ovarian
# [36] = system: OVCAR-5 ovarian
# [37] = system: OVCAR-8 ovarian
# [38] = system: PC-3 prostate
# [39] = system: RXF 393 renal
# [40] = system: SF-268 CNS
# [41] = system: SF-295 CNS
# [42] = system: SF-539 CNS
# [43] = system: SK-MEL-2 melanoma
# [44] = system: SK-MEL-28 melanoma
# [45] = system: SK-MEL-5 melanoma
# [46] = system: SK-OV-3 ovarian
# [47] = system: SN12C renal
# [48] = system: SNB-19 CNS
# [49] = system: SNB-75 CNS
# [50] = system: SW-620 colon
# [51] = system: T-47D breast
# [52] = system: TK-10 renal
# [53] = system: U251 CNS
# [54] = system: UACC-257 melanoma
# [55] = system: UACC-62 melanoma
# [56] = system: UO-31 renal
# [57] = system: NCI-H226 lung
# [58] = system: RPMI-8226 leukemia
# [59] = system: SR leukemia
smiles,measurement,setting,value
CC(=O)OCC1OC(On2ccccc2=S)C(OC(C)=O)C(OC(C)=O)C1OC(C)=O (stereo not given),TGI,[1],> 100 µM
same,TGI,[2],> 100 µM
same,TGI,[3],> 100 µM
same,TGI,[4],> 100 µM
same,TGI,[5],> 100 µM
same,TGI,[6],> 100 µM
same,TGI,[7],34.5 µM
same,TGI,[8],> 100 µM
same,TGI,[9],> 100 µM
same,TGI,[10],> 100 µM
same,TGI,[11],> 100 µM
same,TGI,[12],> 100 µM
same,TGI,[13],> 100 µM
same,TGI,[14],> 100 µM
same,TGI,[15],> 100 µM
same,TGI,[16],> 100 µM
same,TGI,[17],> 100 µM
same,TGI,[18],> 100 µM
same,TGI,[19],> 100 µM
same,TGI,[20],> 100 µM
same,TGI,[21],> 100 µM
same,TGI,[22],> 100 µM
same,TGI,[23],> 100 µM
same,TGI,[24],> 100 µM
same,TGI,[25],> 100 µM
same,TGI,[26],> 100 µM
same,TGI,[27],> 100 µM
same,TGI,[28],> 100 µM
same,TGI,[29],> 100 µM
same,TGI,[30],> 100 µM
same,TGI,[31],> 100 µM
same,TGI,[32],> 100 µM
same,TGI,[33],> 100 µM
same,TGI,[34],> 100 µM
same,TGI,[35],> 100 µM
same,TGI,[36],> 100 µM
same,TGI,[37],> 100 µM
same,TGI,[38],> 100 µM
same,TGI,[39],> 100 µM
same,TGI,[40],> 100 µM
same,TGI,[41],> 100 µM
same,TGI,[42],> 100 µM
same,TGI,[43],> 100 µM
same,TGI,[44],> 100 µM
same,TGI,[45],> 100 µM
same,TGI,[46],> 100 µM
same,TGI,[47],> 100 µM
same,TGI,[48],> 100 µM
same,TGI,[49],> 100 µM
same,TGI,[50],> 100 µM
same,TGI,[51],> 100 µM
same,TGI,[52],> 100 µM
same,TGI,[53],> 100 µM
same,TGI,[54],> 100 µM
same,TGI,[55],> 100 µM
same,TGI,[56],> 100 µM
O=C(O)CC(C(=O)O)c1ccccc1[N+](=O)[O-] (stereo not given),TGI,[1],> 100 µM
same,TGI,[2],> 100 µM
same,TGI,[3],> 100 µM
same,TGI,[4],> 100 µM
same,TGI,[5],> 100 µM
same,TGI,[6],> 100 µM
same,TGI,[7],> 100 µM
same,TGI,[8],> 100 µM
same,TGI,[9],> 100 µM
same,TGI,[10],> 100 µM
same,TGI,[11],> 100 µM
same,TGI,[12],> 100 µM
same,TGI,[13],> 100 µM
same,TGI,[14],> 100 µM
same,TGI,[15],> 100 µM
same,TGI,[16],> 100 µM
same,TGI,[17],> 100 µM
same,TGI,[18],> 100 µM
same,TGI,[19],> 100 µM
same,TGI,[20],> 100 µM
same,TGI,[21],> 100 µM
same,TGI,[22],> 100 µM
same,TGI,[23],> 100 µM
same,TGI,[24],> 100 µM
same,TGI,[25],> 100 µM
same,TGI,[26],> 100 µM
same,TGI,[27],> 100 µM
same,TGI,[28],> 100 µM
same,TGI,[57],> 100 µM
same,TGI,[30],> 100 µM
same,TGI,[31],> 100 µM
same,TGI,[32],> 100 µM
same,TGI,[33],> 100 µM
same,TGI,[34],> 100 µM
same,TGI,[35],> 100 µM
same,TGI,[36],> 100 µM
same,TGI,[37],> 100 µM
same,TGI,[38],> 100 µM
same,TGI,[58],> 100 µM
same,TGI,[39],> 100 µM
same,TGI,[40],> 100 µM
same,TGI,[41],> 100 µM
same,TGI,[43],> 100 µM
same,TGI,[44],> 100 µM
same,TGI,[45],> 100 µM
same,TGI,[46],> 100 µM
same,TGI,[47],> 100 µM
same,TGI,[48],> 100 µM
same,TGI,[49],> 100 µM
same,TGI,[50],> 100 µM
same,TGI,[51],> 100 µM
same,TGI,[52],> 100 µM
same,TGI,[53],> 100 µM
same,TGI,[54],> 100 µM
same,TGI,[55],> 100 µM
same,TGI,[56],> 100 µM
CC(O)C1OC(O)C2OC(C)(C)OC12 (stereo not given),TGI,[1],> 100 µM
same,TGI,[2],> 100 µM
same,TGI,[3],> 100 µM
same,TGI,[4],> 100 µM
same,TGI,[5],> 100 µM
same,TGI,[6],> 100 µM
same,TGI,[7],> 100 µM
same,TGI,[8],> 100 µM
same,TGI,[9],> 100 µM
same,TGI,[10],> 100 µM
same,TGI,[12],> 100 µM
same,TGI,[13],> 100 µM
same,TGI,[14],> 100 µM
same,TGI,[15],> 100 µM
same,TGI,[17],> 100 µM
same,TGI,[18],> 100 µM
same,TGI,[19],> 100 µM
same,TGI,[20],> 100 µM
same,TGI,[21],> 100 µM
same,TGI,[22],> 100 µM
same,TGI,[23],> 100 µM
same,TGI,[25],> 100 µM
same,TGI,[26],> 100 µM
same,TGI,[27],> 100 µM
same,TGI,[28],> 100 µM
same,TGI,[29],> 100 µM
same,TGI,[57],> 100 µM
same,TGI,[30],> 100 µM
same,TGI,[31],> 100 µM
same,TGI,[32],> 100 µM
same,TGI,[33],> 100 µM
same,TGI,[34],> 100 µM
same,TGI,[35],> 100 µM
same,TGI,[36],> 100 µM
same,TGI,[37],> 100 µM
same,TGI,[38],> 100 µM
same,TGI,[58],> 100 µM
same,TGI,[40],> 100 µM
same,TGI,[41],> 100 µM
same,TGI,[42],> 100 µM
same,TGI,[43],> 100 µM
same,TGI,[44],> 100 µM
same,TGI,[45],> 100 µM
same,TGI,[46],> 100 µM
same,TGI,[47],> 100 µM
same,TGI,[48],> 100 µM
same,TGI,[49],> 100 µM
same,TGI,[59],> 100 µM
same,TGI,[50],> 100 µM
same,TGI,[51],> 100 µM
same,TGI,[52],> 100 µM
same,TGI,[53],> 100 µM
same,TGI,[54],> 100 µM
same,TGI,[55],> 100 µM
same,TGI,[56],> 100 µM
O=C1c2ccccc2-c2c1c1ccccc1c(=O)n2Cc1ccco1,TGI,[1],> 100 µM
same,TGI,[2],> 100 µM
same,TGI,[3],> 100 µM
same,TGI,[5],> 100 µM
same,TGI,[6],> 100 µM
same,TGI,[7],> 100 µM
same,TGI,[8],> 100 µM
same,TGI,[9],> 100 µM
same,TGI,[10],> 100 µM
same,TGI,[12],> 100 µM
same,TGI,[13],> 100 µM
same,TGI,[14],> 100 µM
same,TGI,[15],> 100 µM
same,TGI,[16],> 100 µM
same,TGI,[17],> 100 µM
same,TGI,[18],> 100 µM
same,TGI,[19],> 100 µM
same,TGI,[20],> 100 µM
same,TGI,[21],> 100 µM
same,TGI,[22],> 100 µM
same,TGI,[23],> 100 µM
same,TGI,[24],> 100 µM
same,TGI,[25],> 100 µM
same,TGI,[26],> 100 µM
same,TGI,[27],> 100 µM
same,TGI,[28],> 100 µM
same,TGI,[29],> 100 µM
same,TGI,[57],> 100 µM
same,TGI,[30],> 100 µM
same,TGI,[32],> 100 µM
same,TGI,[33],> 100 µM
same,TGI,[34],> 100 µM
same,TGI,[36],> 100 µM
same,TGI,[37],> 100 µM
same,TGI,[38],> 100 µM
same,TGI,[58],> 100 µM
same,TGI,[40],> 100 µM
same,TGI,[41],> 100 µM
same,TGI,[42],> 100 µM
same,TGI,[43],> 100 µM
same,TGI,[44],> 100 µM
same,TGI,[45],> 100 µM
same,TGI,[46],> 100 µM
same,TGI,[47],> 100 µM
same,TGI,[49],> 100 µM
same,TGI,[59],> 100 µM
same,TGI,[50],> 100 µM
same,TGI,[51],> 100 µM
same,TGI,[52],> 100 µM
same,TGI,[53],> 100 µM
same,TGI,[54],> 100 µM
same,TGI,[55],> 100 µM
same,TGI,[56],> 100 µM
